Results from paper PMC4188605, “Biochemical and Pharmacological Characterization of the Human Lymphocyte Antigen B-Associated Transcript 5 (BAT5/ABHD16A)” (PLoS ONE, 2014).
Read-outs that look alike come from different tables or passages of the source.

Key:
hABHD12 = target: T1, hABHD12 (Homo sapiens, UniProt Q8N2K0); experiment: Free fatty acid release assay, hABHD12-HEK293 lysates; type: biochemical; settings: 25 µM substrate; without BSA; 10 and 20 min
T1 construct: expressed in transfected cells; host or cells: HEK293
T1 sequence (Q8N2K0 1-398): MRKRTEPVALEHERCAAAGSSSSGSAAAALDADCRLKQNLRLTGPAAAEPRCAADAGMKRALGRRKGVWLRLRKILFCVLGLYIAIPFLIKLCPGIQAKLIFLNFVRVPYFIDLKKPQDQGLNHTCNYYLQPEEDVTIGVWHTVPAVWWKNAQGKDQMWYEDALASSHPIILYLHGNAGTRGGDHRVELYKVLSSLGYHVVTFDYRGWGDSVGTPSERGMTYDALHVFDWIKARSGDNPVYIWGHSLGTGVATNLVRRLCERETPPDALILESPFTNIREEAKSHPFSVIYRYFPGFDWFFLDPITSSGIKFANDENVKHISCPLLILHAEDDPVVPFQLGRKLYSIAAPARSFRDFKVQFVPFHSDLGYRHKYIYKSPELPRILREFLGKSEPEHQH
Procedure: (§1) Figure 4 Fatty acid liberation from various substrates when incubated together with lysates of HEK293 cells expressing hBAT5 or hABHD12. […] Assay blank and fatty acid standard (C18∶1) were included for each condition. FFA content was determined at time-points 10 and 20 min. Data are mean ± SEM from quadruplicate wells in one experiment.
(§2) We adapted the Free Fatty Acid Assay Kit (Cayman Chemical Item Number 700310) to kinetically monitor fatty acid release from selected substrates using lysates of HEK293 cells (0.3 µg/well) transiently expressing hBAT5 or hABHD12 (as a positive control). The assay protocol was tailored to closely follow the scheme of the 96-well-plate glycerol assay with the exception that BSA was omitted. […] For each tested substrate, assay blank without enzyme and a fatty acid standard (C18∶1-FA, 500 pmol/well) was included.

hBAT5 [1] = target: T2, hBAT5 (Homo sapiens, UniProt O95870); experiment: Free fatty acid release assay, hBAT5-HEK293 lysates; type: biochemical; parameters: host or cells: HEK293; settings: 25 µM substrate; without BSA; 10 and 20 min
T2 sequence (O95870 1-558): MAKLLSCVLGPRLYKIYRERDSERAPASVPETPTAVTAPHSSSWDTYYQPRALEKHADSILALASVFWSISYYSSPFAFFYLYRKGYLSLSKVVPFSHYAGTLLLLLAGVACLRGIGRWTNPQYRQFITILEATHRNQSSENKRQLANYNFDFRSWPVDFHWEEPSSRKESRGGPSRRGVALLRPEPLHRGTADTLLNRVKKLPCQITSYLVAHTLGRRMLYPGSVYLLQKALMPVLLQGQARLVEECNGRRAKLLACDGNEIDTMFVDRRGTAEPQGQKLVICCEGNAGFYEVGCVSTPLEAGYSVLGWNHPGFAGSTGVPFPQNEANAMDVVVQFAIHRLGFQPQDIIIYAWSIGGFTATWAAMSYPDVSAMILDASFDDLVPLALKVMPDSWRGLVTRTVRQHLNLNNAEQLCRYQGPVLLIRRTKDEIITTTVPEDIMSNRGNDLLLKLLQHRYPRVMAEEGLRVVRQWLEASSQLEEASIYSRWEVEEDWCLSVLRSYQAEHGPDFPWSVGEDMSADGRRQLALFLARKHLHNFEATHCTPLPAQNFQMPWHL
Procedure: as §1, §2

hBAT5 [2] = target: T2, hBAT5; experiment: hBAT5 substrate hydrolysis and Michaelis-Menten kinetics (glycerol assay, hBAT5-HEK293 lysates); settings: 25 µM substrate
Procedure: HEK293 cells were transiently transfected with the cDNA encoding hBAT5, as detailed in the Methods section. After 48 h, cells were harvested and lysates prepared for hydrolase activity measurements using a sensitive fluorescent glycerol assay. […] Glycerol production was determined at time-point 60 min.
After 48 h, cells were harvested and lysates prepared for hydrolase activity measurements. Cellular lysates (0.3 µg/well) were incubated together with the indicated concentrations of 1-LG in assay mixes containing (+ BSA) or not (– BSA) 0.5% (w/v) BSA (A) or with 15d-PGJ2-G in assay mix containing BSA (B). […] As crude cellular lysates were used, total protein concentration was used instead of true enzyme concentration. […] Values are mean ± SEM from three independent experiments.
Glycerol liberated from the hydrolysis of glycerolipid substrates was determined kinetically using a fluorometric assay, essentially as previously described [10]. Briefly, glycerol production was coupled via a three-step enzymatic cascade to hydrogen peroxide (H2O2) dependent generation of resorufin whose fluorescence (λex 530; λem 590 nm) was kinetically monitored using a Tecan Infinite M200 plate reader (Tecan Group Ltd., Männedorf, Switzerland). The assays routinely contained 0.5% (w/v) BSA (essentially fatty acid free) as a carrier for lipophilic compounds. […] The twelve MAG substrates were tested also in assays without BSA. In addition, four commercially available PG-Gs were included. To monitor assay performance, assay blanks without enzyme, cellular background (HEK293/Mock cell lysates) as well as a glycerol standard were included for each tested substrate. Fluorescence of the assay blank was subtracted before calculation of the final results.

MAGL = target: T3, MAGL (Mus musculus, UniProt O35678); experiment: Competitive ABPP, mouse brain membrane proteome: MAGL doublet; settings: reference inhibitor at the indicated concentration, used to identify the band (refs 21, 22)
T3 sequence (O35678 1-303): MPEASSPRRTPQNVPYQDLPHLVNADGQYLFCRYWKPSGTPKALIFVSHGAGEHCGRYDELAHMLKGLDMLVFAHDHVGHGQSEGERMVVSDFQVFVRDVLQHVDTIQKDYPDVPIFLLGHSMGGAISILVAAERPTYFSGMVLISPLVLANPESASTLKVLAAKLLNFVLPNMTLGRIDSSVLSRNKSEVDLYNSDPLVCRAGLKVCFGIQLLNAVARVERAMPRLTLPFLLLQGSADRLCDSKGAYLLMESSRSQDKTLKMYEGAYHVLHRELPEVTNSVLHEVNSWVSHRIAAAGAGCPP

ABHD6 = target: T4, ABHD6 (Mus musculus, UniProt Q8R2Y0); experiment: Competitive ABPP, mouse brain membrane proteome: ABHD6 band; settings: reference inhibitor at the indicated concentration, used to identify the band (refs 18, 23, 24)
T4 sequence (Q8R2Y0 1-336): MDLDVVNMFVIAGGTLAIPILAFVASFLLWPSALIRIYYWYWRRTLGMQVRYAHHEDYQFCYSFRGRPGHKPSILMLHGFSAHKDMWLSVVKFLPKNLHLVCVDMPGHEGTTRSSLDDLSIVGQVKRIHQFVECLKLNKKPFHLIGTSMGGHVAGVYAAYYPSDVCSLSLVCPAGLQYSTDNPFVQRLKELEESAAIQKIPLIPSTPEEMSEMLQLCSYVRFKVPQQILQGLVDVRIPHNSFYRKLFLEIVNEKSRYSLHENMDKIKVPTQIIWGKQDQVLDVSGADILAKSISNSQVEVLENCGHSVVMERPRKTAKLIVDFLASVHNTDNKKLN

hBAT5 [3] = target: T2, hBAT5; experiment: Inhibition of 1-LG hydrolysis in hBAT5-HEK293 lysates (fluorescent glycerol assay); type: biochemical; parameters: host or cells: HEK293; settings: for hBAT5 inhibitory activity (in words): 1-LG hydrolysis; for remaining activity at 10 µM: at 10^-5 M; for fold decrease in activity when methyl (40) is replaced: 5-position substituent, relative to 40
[4] = 1-LG 25 µM, 30 min inhibitor pretreatment, monitored 90 min, mean, n=3, read-out: IC50
[5] = printed as LogIC50 with negative sign, 1-LG 25 µM, 30 min pretreatment, Figures 9 and 10, read-out: LogIC50 Mean ± SEM, n=3 (converted)

**Q.** How did the “fatty acid release by hABHD12 (in words)” value (hABHD12) turn out when CCCCC/C=C\C/C=C\C/C=C\C/C=C\CCCC(=O)OC[C@@H](O)CO [1-AG, 1-arachidonoylglycerol] was run?
**A.** Its value is “hydrolyzed”.

**Q.** What about the “fatty acid release by hBAT5 (in words)” value (hBAT5 [1]) of the same molecule?
**A.** Its value is “hydrolyzed”.

**Q.** How did the “hydrolysis by hBAT5 (substrate utilization, in words)” value (shortened to “hydrolysis by hBAT5”) (hBAT5 [2]; with 0.5% BSA, 60 min) turn out when CCCCCCCCCCCCCCCCCC(=O)OC[C@@H](O)CO [1-SG] was run?
**A.** The value was “not utilized”.

**Q.** O=C(N1CCC(C(c2ccc3c(c2)OCO3)c2ccc3c(c2)OCO3)CC1)n1cncn1 [JJKK-048] was tested. Which “inhibition of probe labeling of MAGL by reference inhibitor” value (MAGL) did it give?
**A.** The value was “inhibited”.

**Q.** CCCCCCCC/C=C\CCCCCCCC(=O)OC[C@@H](O)COP(=O)(O)O [LPA, 1-oleoyl-lysophosphatidic acid] was tested. Which “fatty acid release by hABHD12 (in words)” value (hABHD12) did it give?
**A.** The value was “not from LPA”.

**Q.** And the “fatty acid release by hBAT5 (in words)” value (hBAT5 [1])?
**A.** Its value is “no statistically significant liberation of oleic acid”.

**Q.** Which results are given for CCCCCCCC/C=C\CCCCCCCC(=O)OC[C@@H](O)COP(=O)(O)OC[C@H](N)C(=O)O [LPS, 1-oleoyl-lysophosphatidylserine]?
**A.** fatty acid release by hABHD12 (in words) (hABHD12): catalyzed oleic acid release; fatty acid release by hBAT5 (in words) (hBAT5 [1]): no statistically significant liberation of oleic acid

**Q.** With CCCCCCCCCCCCCCCC(=O)OC(CO)CO [MAGs C16∶0, 2-palmitoyl-rac–glycerol] as the molecule, how does the “hydrolysis by hBAT5” value (hBAT5 [2]; without BSA) read?
**A.** Its value is “barely detectable hydrolysis”.

**Q.** Which “hydrolysis by hBAT5” value (hBAT5 [2]; with 0.5% BSA, 60 min) does the source give for CCCCC[C@H](O)/C=C/[C@@H]1[C@@H](C/C=C\CCCC(=O)OCC(O)CO)[C@@H](O)C[C@H]1O (stereo partly drawn) [PG-F2α-G, prostaglandin F2α-1-glycerol ester] here?
**A.** Its value is “low”.

**Q.** CCCCC[C@H](O)/C=C/[C@H]1C(=O)C[C@H](O)[C@@H]1C/C=C\CCCC(=O)OCC(O)CO (some centres unmarked) [PGD2-G, prostaglandin D2-1-glycerol ester] was tested. Which “hydrolysis by hBAT5” value (hBAT5 [2]; with 0.5% BSA, 60 min) did it give?
**A.** Its value is “to lesser extend”.

**Q.** How did the “hydrolysis by hBAT5” value (hBAT5 [2]; with 0.5% BSA, 60 min) turn out when CCCCC[C@H](O)/C=C/[C@H]1[C@H](O)CC(=O)[C@@H]1C/C=C\CCCC(=O)OCC(O)CO (some centres unmarked) [PGE2-G, prostaglandin E2-1-glycerol ester] was run?
**A.** Its value is “low”.

**Q.** How did the “inhibition of probe labeling of ABHD6 by reference inhibitor” value (ABHD6) turn out when CN(Cc1cccc(-c2ccncc2)c1)C(=O)Oc1ccc(-c2ccc(C(N)=O)cc2)cc1 [WWL70] was run?
**A.** The value was “inhibited”.

**Q.** How did the IC50 (hBAT5 [3]; [4]) turn out when COc1nn(-c2ccc([N+](=O)[O-])cc2)c(=O)o1 [compound 41, 5-Methoxy-3-(4-nitrophenyl)-1,3,4-oxadiazol-2(3H)-one] was run?
**A.** Its IC50 is 0.339 µM.

**Q.** For COc1nn(-c2ccccc2F)c(=O)o1 [compound 42], which IC50 (hBAT5 [3]; [4]) is on record?
**A.** Its IC50 is 0.05 µM.

**Q.** With COc1nn(-c2cccc(F)c2)c(=O)o1 [compound 43] as the molecule, how does the IC50 (hBAT5 [3]; [5]) read?
**A.** The IC50 was 0.0417 µM.

**Q.** COc1nn(-c2ccc(Br)cc2)c(=O)o1 [compound 45] was tested. Which IC50 (hBAT5 [3]; [4]) did it give?
**A.** The IC50 was 0.11 µM.

**Q.** How did the IC50 (hBAT5 [3]; [4]) turn out when COc1nn(-c2ccc(I)cc2)c(=O)o1 [compound 46] was run?
**A.** The IC50 was 0.355 µM.

**Q.** COc1nn(-c2cccc(C#N)c2)c(=O)o1 [compound 47] was tested. Which IC50 (hBAT5 [3]; [4]) did it give?
**A.** Its IC50 is 0.078 µM.

**Q.** What does the source list for COc1nn(-c2ccccc2C)c(=O)o1 [compound 48]?
**A.** hBAT5 inhibitory activity (in words) (hBAT5 [3]): inactive; remaining activity at 1 µM (hBAT5 [3]; at 10^-6 M, 1-LG 25 µM): 93.4 ± 1.9%

**Q.** Which “hBAT5 inhibitory activity (in words)” value (hBAT5 [3]) does the source give for COc1nn(Cc2cccc(Oc3ccccc3)c2)c(=O)o1 [compound 49] here?
**A.** The value was “loss of hBAT5 inhibitory activity”.

**Q.** And the remaining activity at 10 µM (hBAT5 [3]; 1-LG 25 µM)?
**A.** Its remaining activity at 10 µM is 102 ± 8.2%.

**Q.** With COc1nn(Cc2cccc([N+](=O)[O-])c2)c(=O)o1 [compound 50, 5-Methoxy-3-(3-nitrobenzyl)-1,3,4-oxadiazol-2(3H)-one] as the molecule, how does the “hBAT5 inhibitory activity (in words)” value (hBAT5 [3]) read?
**A.** Its value is “loss of hBAT5 inhibitory activity”.

**Q.** What about the remaining activity at 10 µM (hBAT5 [3]; 1-LG 25 µM) of the same molecule?
**A.** The remaining activity at 10 µM was 99.3 ± 4.7%.

**Q.** Which IC50 (hBAT5 [3]; [4]) does the source give for CCOc1nn(-c2cccc([N+](=O)[O-])c2)c(=O)o1 [compound 51, 5-Ethoxy-3-(3-nitrophenyl)-1,3,4-oxadiazol-2(3H)-one] here?
**A.** The IC50 was 0.126 µM.

**Q.** What about the “fold decrease in activity when methyl (40) is replaced” value (shortened to “fold decrease in activity when methyl”) (hBAT5 [3]) of the same molecule?
**A.** The value was “about twofold”.

**Q.** Which IC50 (hBAT5 [3]; [4]) does the source give for O=c1oc(Oc2ccccc2)nn1-c1cccc([N+](=O)[O-])c1 [compound 52, 3-(3-Nitrophenyl)-5-phenoxy-1,3,4-oxadiazol-2(3H)-one] here?
**A.** Its IC50 is 0.138 µM.

**Q.** And the “fold decrease in activity when methyl” value (hBAT5 [3])?
**A.** The value was “about twofold”.

**Q.** With O=c1oc(OCc2ccccc2)nn1-c1cccc([N+](=O)[O-])c1 [compound 53, 5-(Benzyloxy)-3-(3-nitrophenyl)-1,3,4-oxadiazol-2(3H)-one] as the molecule, how does the “fold decrease in activity when methyl” value (hBAT5 [3]) read?
**A.** Its value is 24 fold.

**Q.** And the IC50 (hBAT5 [3]; [5])?
**A.** The IC50 was 1.48 µM.

**Q.** With COc1ccc(Oc2nn(-c3cccc([N+](=O)[O-])c3)c(=O)o2)cc1 [compound 54, 5-(4-Methoxyphenoxy)-3-(3-nitrophenyl)-1,3,4-oxadiazol-2(3H)-one] as the molecule, how does the IC50 (hBAT5 [3]; [4]) read?
**A.** The IC50 was 0.631 µM.

**Q.** What about the “fold decrease in activity when methyl” value (hBAT5 [3]) of the same molecule?
**A.** Its value is 10 fold.

**Q.** How did the “hBAT5 inhibitory activity (in words)” value (hBAT5 [3]) turn out when O=c1oc(Oc2ccc([N+](=O)[O-])cc2)nn1-c1cccc([N+](=O)[O-])c1 [compound 55, 5-(4-Nitrophenoxy)-3-(3-nitrophenyl)-1,3,4-oxadiazol-2(3H)-one] was run?
**A.** The value was “weakest inhibitor of this series”.

**Q.** And the remaining activity at 10 µM (hBAT5 [3]; 1-LG 25 µM)?
**A.** Its remaining activity at 10 µM is 50.5 ± 3.7%.
